Test results from patent publication US7989495B2, “Compositions and methods for inhibiting NF-κB mediated tumorigenicity and adhesion dependent survival of cancer cells” (University of Utah Research Foundation, priority 2002, dated 2011).

Tests used:
Format in all cases: cell-based
[1] = system: NF-κB (p65) binding to NF-κB consensus oligonucleotides; test: NF-κB binding activity assay (Trans-AM) on lysates of treated HT-29 cells
Procedure: (§1) The transiently suspended cells were lysed and allowed to bind to DNA oligonucleotides, containing the NF-κB consensus binding site, that were immobilized to 96-well plates. NF-κB protein bound to the oligonucleotides was detected by an antibody to the p65 subunit that only recognized p65 that is bound to DNA. The positive control was HeLa cells that were stimulated with TNFα A control was performed using excess free NF-κB oligonucleotides (Competitor). […] NF-κB binding activity was determined by the TransAM assay as in FIG. 5A. […] The data shown represent typical results of three separate experiments. […] An immunoblot for COX-2 was performed.
Activation of NF-κB was also determined using the Trans-AM™ assay (Active Motif, Carlsbad, Calif.) per the manufacturer's instructions. (Renard et al., 2001) Briefly, cell monolayers on 60 mm dishes were washed with ice-cold PBS and removed by incubating in trypsin-PBS or scraping. The cells were centrifuged for 10 minutes at 1,000 rpm at 4° C. and resuspended for 10 minutes in 100 μl of 4° C. lysis buffer (20 mM HEPES (pH 7.5), 350 mM NaCl, 20% glycerol, 1% Igepal-CA630, 1 mM MgCl2, 0.5 mM EDTA, 0.1 mM EGTA, 1 μl of 1 M dithiothreitol and 10 μl of protease inhibitor cocktail (proprietary) per ml of lysis buffer). The lysates were centrifuged for 20 minutes at 14,000 g at 4° C. Lysates containing 5 μg of total protein were added to 20 μl of lysis buffer per well in 96-well dishes containing immobilized oligonucleotides corresponding to the NF-κB consensus DNA binding site (5′-GGGACTTTCC-3′) (SEQ ID NO:2). The plate was covered with an adhesive film and incubated for 1 hour at room temperature on a rocker. The wells were then washed three times with 200 μl per well of washing buffer (100 mM phosphate buffer (pH 7.5), 500 mM NaCl, 1% Tween). 100 μl of p65subunit monoclonal antibody (the p65 antibody supplied with the kit only recognizes p65-containing NF-κB heterodimers that are bound to DNA containing the NF-κB consensus binding sequence) was diluted 1:1,000 in 1× antibody binding buffer (4 mM HEPES (pH 7.5), 120 mM KCl, 8% glycerol, 1% bovine serum albumin) and added to each well and incubated for 1 hour at room temperature. The wells were washed with 100 μl of washing buffer three times. 100 μl of horseradish peroxidase-conjugated secondary antibody diluted 1:1,000 in 1× antibody binding buffer was added to each well and incubated for 1 hour at room temperature without agitation. […] 100 μl of stop solution (0.5 M H2SO4) was added to each well after which the absorbance was determined on a plate spectrophotometer at 450 nm. Specificity of binding was determined using 200-fold excess wildtype NF-κB oligonucleotides added at the time the cell lysates were added to the wells. […]

293-COX-2 cells = test: Apoptosis of 293 cells with ponasterone-inducible COX-2; conditions: 8 hours
Procedure: as §1
DLD-1, HCT-116, and HT-29 colon cancer cell lines were obtained from the ATCC collection and were cultured in Dulbecco's Modification of Eagle's Medium supplemented with 10% fetal bovine serum, glutamine, penicillin, and streptomycin. […]
Single cell suspensions were plated at 100,000 cells per well in 24-well plates in media containing DMSO, BAY 11-7082, BAY 11-7085, or MG-132 for 8-24 hours in an incubator. […] 400 μl of binding buffer was added to each tube and the cells were analyzed by flow cytometry immediately. The percent of apoptosis was determined as the percent of annexin V-positive, propidium iodide-negative cells of the total cells counted. […]

[2] = system: HT-29 colon cancer cell line; test: Cell proliferation assay (crystal violet, 590 nm); conditions: 10 μM, cultured 8 days
Procedure: DLD-1, HCT-116, and HT-29 colon cancer cell lines were obtained from the ATCC collection and were cultured in Dulbecco's Modification of Eagle's Medium supplemented with 10% fetal bovine serum, glutamine, penicillin, and streptomycin. 293 cells stably transfected with COX-2 (293-COX-2) under the control of a ponasterone sensitive promoter were cultured in Dulbecco's Modification of Eagle's Medium supplemented with 10% fetal bovine serum, 400 μg/ml of zeocin, 400 μg/ml of G418, glutamine, penicillin, and streptomycin. For induction of COX-2 protein expression, 293-COX-2 cells were cultured for 48 hours in media supplemented with 1 μg/ml of ponasterone. All cells were cultured at 37° C. in a humidified incubator with a 5% CO2 atmosphere.
For the cell proliferation assay, cells were dispersed and plated at 40,000 cells/well in 96-well dishes. At various days in culture, the cells were gently washed twice with 100 μl/well of ice-cold blocking buffer (1% radioimmunoassay grade BSA in PBS) and twice with 100 μl/well of ice-cold PBS. The cells were fixed for 10 min in 100% ice-cold methanol (100 μl/well), then allowed to air-dry. The cells were stained with 100μl/well of 0.1% crystal violet in H2O for 10 minutes, then washed gently four times with dd H20 and four times with PBS. The plates were then air-dried completely. The stained cells were then solubilized in 1% sodium deoxycholate, and the plates read at 590 nm in a spectrophotometer. The absorption at 590 nm is proportional to the number of attached cells.

## CC(C)(C)c1ccc(S(=O)(=O)/C=C/C#N)cc1 [BAY 11-7085, (2E)-3-[4-(tertiarybutylphenyl)sulfonyl]-2-propenenitrile]
[1]; adherent HT-29, increasing concentrations, 8 hours
  constitutive NF-κB activation in adherent cells: relatively unaffected
[1]; adherent colon cancer cells, doses up to 50 μM
  inhibition of constitutive NF-κB activation in adherent cells: could not be inhibited
[1]; transiently suspended HT-29, increasing concentrations, 8 hours
  inhibition of NF-κB activation caused by readhesion: dose-related inhibition of this NF-κB activation
[1]; transiently suspended colon cancer cells, as little as 10 μM
  inhibition of NF-κB activation induced by readhesion: almost totally inhibited
293-COX-2 cells; ponasterone-induced (1 μg/ml, 48 hours) 293-COX-2 cells
  apoptosis following treatment: marked increase in BAY 11-7085-induced apoptosis
293-COX-2 cells; uninduced 293-COX-2 cells
  apoptosis following treatment: no increase in apoptosis
[2]
  inhibition of cell proliferation: greatly inhibited cell proliferation
